Assay results taken from article PMC11243327, “Design, Synthesis, Antitumor, and Antiplasmodial Evaluation of New 7-Chloroquinoline–Benzimidazole Hybrids” (Molecules, 2024).
Structures can show the parent of a compound that is named as a salt.

Key:
[1] = test system: MRC-5 (human fetal lung fibroblasts); assay: Antiproliferative MTT assay, MRC-5; type: cell-based; conditions: Homo sapiens, MRC5, non-tumor cell line, 72 h, mean ± SD of three experiments
Description: (§1) The effect of the new synthesized compounds was tested on five human tumor cell lines, HeLa (human cervical adenocarcinoma; from ATCC), CaCo-2 (human colorectal adenocarcinoma), HL-60 (acute promyelocytic leukemia), HuT78 (T-cell lymphoma), and THP-1 (acute monocytic leukemia), as well as one non-tumor cell line, MRC-5 (human fetal lung fibroblasts). The MRC-5 cells were used between 24 and 26 passages. The cells were cultured in two different types of media: DMEM (Gibco Thermo Fisher Scinetific Inc., Runcorn, UK) and RPMI 1640 (Gibco, Thermo Fisher Scinetific Inc., UK). Both media were supplemented with 2 mM glutamine, fetal bovine serum (10%; heat inactivated), and antibiotics (100 U penicillin and 0.1 mg streptomycin). RPMI 1640 was additionally supplemented with 10 mM HEPES and 1 mM sodium pyruvate. Cells growing in a monolayer were cultured in DMEM, while cells growing in suspension were cultured in RPMI 1640. Cells were grown in humidified atmosphere under the conditions of 37 °C/5% CO2 gas in a CO2 incubator (IGO 150 CELLlife^TM, JOUAN, Thermo Fisher Scientific, Waltham, MA, USA).
(§2) Growth-inhibitory activity was assessed using a slightly modified procedure based on the National Cancer Institute’s protocol. Briefly, cells were seeded in 96-well microtiter plates and incubated for 24 h. They were then treated with 10^−7 to 10^−4 M concentrations of the tested compounds for an additional 72 h. After the treatment period, the effects of the tested compounds on the growth rate of the cells were examined using the MTT assay. Absorbance was measured at 595 nm using a microplate reader. The IC50 value, which represents a 50% inhibition of cell growth, and QC calculation were performed using the GraphPadPrism software (La Jolla, USA), v. 5.03. and Excel software, Office 365. The selectivity index was calculated according to the following formula: SI=IC50 value of normal cell line/IC50 value of cancer cell line
(§3) The effect of each concentration was analyzed by plotting the logarithm of the concentration of the evaluated compound against the corresponding percentage inhibition value using least squares.

[2] = test system: HeLa (human cervical adenocarcinoma); assay: Antiproliferative MTT assay, HeLa; type: cell-based; conditions: Homo sapiens, HeLa, 72 h, mean ± SD of three experiments
Description: as §1, §2, §3

[3] = test system: CaCo-2 (human colorectal adenocarcinoma); assay: Antiproliferative MTT assay, CaCo-2; type: cell-based; conditions: Homo sapiens, Caco-2, 72 h, mean ± SD of three experiments
Description: as §1, §2, §3

[4] = test system: THP-1 (acute monocytic leukemia); assay: Antiproliferative MTT assay, THP-1; type: cell-based, human; conditions: Homo sapiens, THP-1, 72 h, mean ± SD of three experiments
Description: as §1, §2, §3

[5] = test system: HuT78 (T-cell lymphoma); assay: Antiproliferative MTT assay, Hut78; type: cell-based, human; conditions: Homo sapiens, HuT78, 72 h, mean ± SD of three experiments
Description: as §1, §2, §3

[6] = test system: HL-60 (acute promyelocytic leukemia); assay: Antiproliferative MTT assay, HL-60; type: cell-based, human; conditions: Homo sapiens, HL-60, 72 h, mean ± SD of three experiments
Description: as §1, §2, §3

[7] = test system: P. falciparum 3D7 (CQ-susceptible), erythrocytic stage; assay: Antiplasmodial HRP2 assay, Pf3D7; type: cell-based, Plasmodium falciparum; conditions: Plasmodium falciparum, 3D7, 72 h; chloroquine-sensitive strain, three days incubation, HRP2-ELISA, mean ± SD, n ≥ 2; read-out: IC50 Pf3D7
Description: (§4) Method used to evaluate the antiplasmodial activity of quinoline–benzimidazole hybrids against two P. falciparum strains, chloroquine-sensitive (Pf3D7) and chloroquine-resistant (PfDd2), was previously described. […] Chloroquine was used as a positive control.
(§5) In brief, 96-well plates were pre-coated with the tested compounds at 1:3 dilution before ring-stage parasites were added to the complete culture medium at a hematocrit of 1.5% and a parasitemia of 0.05%. […] All compounds were analyzed in duplicate in at least two independent experiments. The IC50 was determined by nonlinear regression analysis of the logarithmic concentration-response curves using the drc package v3.0-1 of R v4.1.0 [56].

[8] = test system: P. falciparum Dd2 (multiresistant), erythrocytic stage; assay: Antiplasmodial HRP2 assay, PfDd2; type: cell-based, Plasmodium falciparum; conditions: Plasmodium falciparum, DD2, 72 h; chloroquine-resistant strain, three days incubation, HRP2-ELISA, mean ± SD, n ≥ 2; read-out: IC50 PfDd2
Description: as §4, §5

Row | Structure (SMILES) | IC50 [1] [µM] | IC50 [2] [µM] | IC50 [3] [µM] | IC50 [4] [µM] | IC50 [5] [µM] | IC50 [6] [µM] | IC50 [7] [µM] | IC50 [8] [µM] | melting point
1 | Clc1ccc2c(NCCCOc3ccc(-c4nc5ccc(Cl)cc5[nH]4)cc3)ccnc2c1 [Compound 13b] | 0.4 ± 0.1 | 0.6 ± 0.1 | 1.6 ± 0.4 | 2.1 ± 0.7 | 0.3 ± 0.2 | 0.2 ± 0.1 | 0.0024 ± 0.0014 | 0.0039 ± 0.0011 | 198 to 200 °C
2 | N=C(NC1CCCC1)c1ccc2nc(-c3ccc(OCCNc4ccnc5cc(Cl)ccc45)c(Br)c3)[nH]c2c1 [Compound 11d, 2-{3-bromo-4-[2-(7-chloroquinolin-4-ylamino)ethoxy]phenyl}-N-cyclopentyl-1H-benzo[d]imidazole-5(6)-carboximidamide trihydrochloride] | > 100 | > 100 | > 100 | 33.9 ± 3.6 | 17.3 ± 9.2 | 44.3 ± 1.2 | 0.321 ± 0.0328 | 0.985 ± 0.521 | 
3 | COc1cc(-c2nc3ccccc3[nH]2)ccc1OCCNc1ccnc2cc(Cl)ccc12 [Compound 12a, N-{[4-(1H-benzo[d]imidazole-2-yl)-2-methoxyphenoxy]ethyl}-7-chloroquinolin-4-amine] | 3.8 ± 0.4 | 2.2 ± 0.1 | 2 ± 0.3 | 3 ± 0.6 | 4.2 ± 2.1 | 2 ± 0.3 | 0.0145 ± 0.004 | 0.0912 ± 0.0095 | 210 to 212 °C
4 | COc1cc(-c2nc3ccc(C(=N)NC4CCCC4)cc3[nH]2)ccc1OCCCNc1ccnc2cc(Cl)ccc12 (as salt: hydrochloride) [Compound 15d] |  |  |  |  |  |  |  |  | 260 °C (dec.)
5 | COc1ccc2nc(-c3ccc(OCCCNc4ccnc5cc(Cl)ccc45)c(OC)c3)[nH]c2c1 [Compound 15c, 7-chloro-N-{[4-(5(6)-methoxy-benzo[d]imidazole-2-yl)-2-methoxyphenoxy]propyl}quinolin-4-amine] | 0.7 ± 0.6 | 1.2 ± 0.6 | 1.5 ± 0.3 | 2.2 ± 0.3 | 0.7 ± 0.6 | 0.2 | 0.0069 ± 0.0017 | 0.0165 ± 0.0057 | 220 °C (dec.)
6 | COc1cc(-c2nc3ccc(C(=N)NC4CCCC4)cc3[nH]2)ccc1OCCNc1ccnc2cc(Cl)ccc12 [Compound 12d, 2-{3-methoxy-4-[2-(7-chloroquinolin-4-ylamino)ethoxy]phenyl}-N-cyclopentyl-1H-benzo[d]imidazole-5(6)-carboximidamide trihydrochloride] | > 100 | > 100 | > 100 | 100 | 16.1 ± 4.7 | 52.5 ± 5.1 | 0.191 ± 0.0115 | 0.12 ± 0.0075 | 
7 | Clc1ccc2c(NCCCOc3ccc(-c4nc5ccc(Cl)cc5[nH]4)cc3Br)ccnc2c1 [Compound 14b, N-{[2-bromo-4-(5(6)-chloro-1H-benzo[d]imidazole-2-yl)phenoxy]propyl}-7-chloroquinolin-4-amine] | 2 ± 1.8 | 1.5 ± 1 | 1.5 ± 1.1 | 6.8 ± 3.5 | 0.9 ± 0.6 | 0.4 ± 0.1 | 0.005 ± 0.0014 | 0.0142 ± 0.0012 | 219 to 221 °C
8 | COc1ccc2nc(-c3ccc(OCCCNc4ccnc5cc(Cl)ccc45)cc3)[nH]c2c1 [Compound 13c] | 2.7 ± 0.5 | 0.2 ± 0.2 | 1 ± 0.5 | 2.6 | 1.1 ± 0.5 | 0.3 ± 0.2 | 0.0128 ± 0.0005 | 0.0119 ± 0.0016 | 212 °C (dec.)
9 | Clc1ccc2c(NCCOc3ccc(-c4nc5ccc(Cl)cc5[nH]4)cc3)ccnc2c1 [Compound 10b, 7-chloro-N-{2-[4-(5(6)-chloro-1H-benzo[d]imidazole-2-yl)phenoxy]ethyl}quinolin-4-amine] | 4 ± 1.1 | 2.7 ± 0.2 | 1.9 ± 0.2 | 3.4 ± 0.8 | 1.6 ± 1.2 | 2 ± 0.4 | 0.0035 ± 0.0015 | 0.0049 ± 0.0008 | 222 to 224 °C
